Laboratory results from PMC8584173, “The Cytotoxic Effect of Copper (II) Complexes with Halogenated 1,3-Disubstituted Arylthioureas on Cancer and Bacterial Cells” (International Journal of Molecular Sciences, 2021).

Tests used:
[1] = tested on: Bacillus subtilis H17 (rec+); assay: Bacillus subtilis rec-assay, H17; type: cell-based; details: B. subtilis H17; 256 µg per disc (NOQ 2 µg per disc)
Procedure: DNA-damaging activity of compounds was tested by rec-assay using two genetically modified Bacillus subtilis strains: M45 (rec^−) and H17 (rec^+). Tested compounds were dissolved in DMSO, and 10 µL of each solution was dripped onto sterile cotton discs (Rotilabo) to load 256 µg of a given compound per 9 mm disc. Discs were placed on the surface nutrient agar plates (Difco), inoculated with 100 µL of bacterial overnight culture and incubated […] at 35 °C. After incubation, the growth inhibition zones were measured. […] Results of the genotoxicity test were estimated after 18 h of incubation at 35 °C by comparing the diameter of the inhibition zone on the B. subtilis M45 (rec^−) strain with that on the B. subtilis H17 (rec^+) strain.

E. coli ATCC 25922 = assay: MIC, twofold serial microdilution; type: cell-based, Escherichia coli; details: E. coli ATCC 25922, 18 h, 35 °C
Procedure: (§1) The antimicrobial activity of the compounds was tested on Gram-positive bacteria (Staphylococcus aureus NCTC 4163, Staphylococcus aureus ATCC 25923, Staphylococcus aureus ATCC 6538, Staphylococcus aureus ATCC 29213, Staphylococcus epidermidis ATCC 12228, Staphylococcus epidermidis ATCC 35984), Gram-negative rods (Escherichia coli ATCC 10538, Escherichia coli ATCC 25922, Pseudomonas aeruginosa ATCC 15442, Pseudomonas aeruginosa ATCC 27863) and yeasts (Candida albicans ATCC 10231, Candida albicans ATCC 90028, Candida parapsilosis ATCC 22019). Hospital methicillin-resistant strains of Staphylococcus aureus and Staphylococcus epidermidis were obtained from the collection of the Department of Pharmaceutical Microbiology, Medical University of Warsaw, Poland.
(§2) Antifungal activities were assessed using Mueller–Hinton agar + 2% glucose and 0.5 µg/mL methylene blue dye medium. Sterile filter paper discs (9 mm diameter, Whatman Number 3 chromatography paper) were dripped with tested compound solutions (in dimethylsulfoxide, DMSO) to load 400 μg of a given compound per disc. Dry discs were placed on the surface of appropriate agar medium. The results (diameter of the growth inhibition zone) were read after 18 h of incubation at 35 °C. Minimal inhibitory concentration (MIC) was tested by the twofold serial microdilution method (in 96-well microtiter plates) using Mueller–Hinton broth medium (Beckton Dickinson) for bacteria or RPMI-1640 medium for Candida species, according to CLSI guidelines. The stock solution of tested agent was prepared in DMSO and diluted in sterile water. […] The final inoculum of all studied microorganisms was 10^5 CFU/ mL^−1 (colony forming units per ml). Minimal inhibitory concentrations (the lowest concentration of a tested agent that prevents visible growth of a microorganism) were read after 18 h (bacteria) or 24 h (yeasts) of incubation at 35 °C.

E. coli NCTC 10538 = assay: MIC, twofold serial microdilution; type: cell-based, Escherichia coli; details: E. coli NCTC 10538, 18 h, 35 °C
Procedure: as §1, §2

S. epidermidis 436 = assay: MIC, hospital MRSE strain; type: cell-based, Staphylococcus epidermidis; details: hospital MRSE S. epidermidis 436
Procedure: as §1, §2

S. epidermidis 513 = assay: MIC, hospital MRSE strain; type: cell-based, Staphylococcus epidermidis; details: hospital MRSE S. epidermidis 513
Procedure: as §1, §2

S. epidermidis 433 = assay: MIC, hospital MRSE strain; type: cell-based, Staphylococcus epidermidis; details: hospital MRSE S. epidermidis 433
Procedure: as §1, §2

S. epidermidis 435 = assay: MIC, hospital MRSE strain; type: cell-based, Staphylococcus epidermidis; details: hospital MRSE S. epidermidis 435
Procedure: as §1, §2

S. epidermidis 510 = assay: MIC, hospital MRSE strain; type: cell-based, Staphylococcus epidermidis; details: hospital MRSE S. epidermidis 510
Procedure: as §1, §2

S. epidermidis 469 = assay: MIC, hospital MRSE strain; type: cell-based, Staphylococcus epidermidis; details: hospital MRSE S. epidermidis 469
Procedure: as §1, §2

S. epidermidis 515 = assay: MIC, hospital MRSE strain; type: cell-based, Staphylococcus epidermidis; details: hospital MRSE S. epidermidis 515
Procedure: as §1, §2

S. epidermidis 420 = assay: MIC, hospital MRSE strain; type: cell-based, Staphylococcus epidermidis; details: hospital MRSE S. epidermidis 420
Procedure: as §1, §2

S. epidermidis 424 = assay: MIC, hospital MRSE strain; type: cell-based, Staphylococcus epidermidis; details: hospital MRSE S. epidermidis 424
Procedure: as §1, §2

S. epidermidis 423 = assay: MIC, hospital MRSE strain; type: cell-based, Staphylococcus epidermidis; details: hospital MRSE S. epidermidis 423
Procedure: as §1, §2

S. epidermidis 511 = assay: MIC, hospital MRSE strain; type: cell-based, Staphylococcus epidermidis; details: hospital MRSE S. epidermidis 511
Procedure: as §1, §2

S. epidermidis 471 = assay: MIC, hospital MRSE strain; type: cell-based, Staphylococcus epidermidis; details: hospital MRSE S. epidermidis 471
Procedure: as §1, §2

S. epidermidis 438 = assay: MIC, hospital MRSE strain; type: cell-based, Staphylococcus epidermidis; details: hospital MRSE S. epidermidis 438
Procedure: as §1, §2

[2] = tested on: S. epidermidis ATCC 12228; assay: MIC, twofold serial microdilution; type: cell-based, Staphylococcus epidermidis; details: S. epidermidis ATCC 12228, 18 h, 35 °C
Procedure: as §1, §2

[3] = tested on: S. epidermidis ATCC 35984; assay: MIC, twofold serial microdilution; type: cell-based, Staphylococcus epidermidis; details: S. epidermidis ATCC 35984, 18 h, 35 °C
Procedure: as §1, §2

[4] = tested on: HaCaT (human immortal keratinocyte cell line); assay: MTT cytotoxicity assay, HaCaT; type: cell-based; details: HaCaT normal cells, 72 h
Procedure: The human primary (SW480), metastatic (SW620) colon cancer, metastatic prostate cancer (PC3) and human immortal keratinocyte (HaCaT) cell lines were purchased from the American Type Culture Collection (ATCC, Rockville, USA). The cells were cultured in medium according to protocols (MEM for SW480 and SW620, RPMI 1640 for PC3 and DMEM for HaCaT cells) supplemented with 10% fetal bovine serum (FBS), penicillin (100 U/mL) and streptomycin (100 μg/mL) and cultured in 37 °C/ 5% CO2 humidified incubator. The cells were cultured until appropriate confluence was achieved (80–90%). Next, they were harvested by treatment with 0.25% trypsin (Gibco Life Technologies, USA) and used for studies.
Cells without studied compounds in medium were used as a control.
The cell viability was assessed by determination of MTT salt (3-(4,5-dimethylthiazol-2-yl)-2,5-diphenyltetrazolium bromide) conversion by mitochondrial dehydrogenase. MTT assay was performed as previously described. Experiments were repeated three times. Cell viability was presented as a percentage of MTT reduction in the treated cells versus the control cells. Number of viable cells cultured without studied compounds was assumed to be 100%. Decreased relative MTT level means decreased cell viability. Thiourea complexes with the highest cytotoxic potential assessed by MTT determination (with the lowest IC50) were chosen for subsequent assessments of cytotoxicity mechanisms.

Row | SMILES | inhibition zone diameter [1] | MIC (E. coli ATCC 25922) | MIC (E. coli NCTC 10538) | MIC (S. epidermidis 436) | MIC (S. epidermidis 513) | MIC (S. epidermidis 433) | MIC (S. epidermidis 435) | MIC (S. epidermidis 510) | MIC (S. epidermidis 469) | MIC (S. epidermidis 515) | MIC (S. epidermidis 420) | MIC (S. epidermidis 424) | MIC (S. epidermidis 423) | MIC (S. epidermidis 511) | MIC (S. epidermidis 471) | MIC (S. epidermidis 438) | MIC [2] | MIC [3] | IC50 [4]
1 | O=[N+]([O-])c1cc([N+]2=C(Nc3ccccc3Br)[S][Cu-2]23[S]C(Nc2ccccc2Br)=[N+]3c2ccc(Cl)c([N+](=O)[O-])c2)ccc1Cl [Compound 1, Copper (II) complex with 1-(2-bromophenyl)-3-(4-chloro-3-nitrophenyl)thiourea] | 12 mm | 256 mg/L | 128 mg/L | 8 mg/L | 8 mg/L | 4 mg/L | 8 mg/L | 8 mg/L | 8 mg/L | 4 mg/L | 4 mg/L | 8 mg/L | 8 mg/L | 8 mg/L | 8 mg/L | 8 mg/L | 16 mg/L | 8 mg/L | 110 ± 3.4 µM
2 | O=[N+]([O-])c1cc([N+]2=C(Nc3cccc(Br)c3)[S][Cu-2]23[S]C(Nc2cccc(Br)c2)=[N+]3c2ccc(Cl)c([N+](=O)[O-])c2)ccc1Cl [Compound 2, Copper (II) complex with 1-(3-bromophenyl)-3-(4-chloro-3-nitrophenyl)thiourea] | 17 mm | 128 mg/L | 128 mg/L | 8 mg/L | 8 mg/L | 8 mg/L | 8 mg/L | 8 mg/L | 8 mg/L | 8 mg/L | 8 mg/L | 8 mg/L | 8 mg/L | 8 mg/L | 8 mg/L | 8 mg/L | 16 mg/L | 16 mg/L | 167 ± 2.3 µM
3 | O=[N+]([O-])c1cc([N+]2=C(Nc3ccc(Br)cc3)[S][Cu-2]23[S]C(Nc2ccc(Br)cc2)=[N+]3c2ccc(Cl)c([N+](=O)[O-])c2)ccc1Cl [Compound 3, Copper (II) complex with 1-(4-bromophenyl)-3-(4-chloro-3-nitrophenyl)thiourea] | 15 mm | >256 mg/L | 128 mg/L | 4 mg/L | 4 mg/L | 4 mg/L | 4 mg/L | 4 mg/L | 4 mg/L | 8 mg/L | 8 mg/L | 4 mg/L | 4 mg/L | 4 mg/L | 8 mg/L | 4 mg/L | 16 mg/L | 16 mg/L | 103 ± 3.2 µM
4 | O=[N+]([O-])c1cc([N+]2=C(Nc3ccc(F)c(Cl)c3)[S][Cu-2]23[S]C(Nc2ccc(F)c(Cl)c2)=[N+]3c2ccc(Cl)c([N+](=O)[O-])c2)ccc1Cl [Compound 4, Copper (II) complex with 1-(3-chloro-4-fluorophenyl)-3-(4-chloro-3-nitrophenyl)thiourea] | 16 mm | 128 mg/L | 128 mg/L | 8 mg/L | 8 mg/L | 4 mg/L | 8 mg/L | 8 mg/L | 4 mg/L | 4 mg/L | 4 mg/L | 8 mg/L | 4 mg/L | 4 mg/L | 8 mg/L | 8 mg/L | 4 mg/L | 4 mg/L | 121 ± 5.2 µM
5 | O=[N+]([O-])c1cc([N+]2=C(Nc3ccc(Cl)c(Cl)c3)[S][Cu-2]23[S]C(Nc2ccc(Cl)c(Cl)c2)=[N+]3c2ccc(Cl)c([N+](=O)[O-])c2)ccc1Cl [Compound 5, Copper (II) complex with 1-(4-chloro-3-nitrophenyl)-3-(3,4-dichlorophenyl)thiourea] | 17 mm | 128 mg/L | 128 mg/L | 32 mg/L | 16 mg/L | 32 mg/L | 32 mg/L | 16 mg/L | 32 mg/L | 32 mg/L | 32 mg/L | 32 mg/L | 32 mg/L | 32 mg/L | 32 mg/L | 32 mg/L | 32 mg/L | 32 mg/L | 165 ± 4.7 µM
6 | O=[N+]([O-])c1cc(NC2=[N+](c3ccc(Cl)c([N+](=O)[O-])c3)[Cu-2]3([S]2)[S]C(Nc2ccc(Cl)c([N+](=O)[O-])c2)=[N+]3c2ccc(Cl)c([N+](=O)[O-])c2)ccc1Cl [Compound 6, Copper (II) complex with 1,3-bis(4-chloro-3-nitrophenyl)thiourea] | 16 mm | 128 mg/L | 128 mg/L | 128 mg/L | 64 mg/L | 64 mg/L | 128 mg/L | 64 mg/L | 64 mg/L | 64 mg/L | 64 mg/L | 64 mg/L | 64 mg/L | 64 mg/L | 64 mg/L | 128 mg/L | 8 mg/L | 8 mg/L | 123 ± 2.1 µM
